pEC50, pIC50: −log10 of the molar value.
Key:
Rat cortical neurons [1] = experiment: Neurite Outgrowth in Primary Neuronal Cultures Assay (Procedure B); assay type: cell-based; design: key: A: Statistically significant mean increase as a percent of DMSO control at 10 μM or less; B: No statistically significant mean increase as a percent of DMSO control at 10 μM or less; conditions: 72 h, percent of DMSO control at 10 μM or less
Excerpt: Neurite Outgrowth in Primary Neuronal Cultures Assay (Procedure B). Changes in the pattern of neurite outgrowth have been implicated in psychiatric and neurodegenerative disorders as well as traumatic injuries. The discovery of new compounds that can positively affect neuritogenesis are important for developing new therapeutics for neurological diseases. Measurement of neurite outgrowth of rat cortical neurons using an automated image-based assay was used to determine the neuroplastic effects of the compounds of the present invention. The neurite outgrowth assay was performed at Neurofit SAS (France) as described below.
Pregnant Wistar rats (Janvier; France) were used for the study. They were delivered 6 days before their use. Upon arrival at Neurofit animal facility, they were housed one per cage and maintained in a room with controlled temperature (21-22° C.) and a reversed light-dark cycle (12 h/12 h; lights on: 17:30-05:30; lights off: 05:30-17:30) with food and water available ad libitum.
Female Wistar rats of 17 days gestation were killed by cervical dislocation and the fetuses were removed from the uterus. Their brains were placed in ice-cold medium of Leibovitz (L15, Gibco, Fisher bioblock, France). Cortices were dissected and meninges were carefully removed. The cortical neurons were dissociated by trypsinization for 30 min at 37° C. (trypsin-EDTA, Gibco) in presence of 0.1 mg/ml DNAse I (Roche, France). The reaction was stopped by addition of Dulbecco's Modified Eagle Medium (DMEM; Gibco) with 10% of fetal bovine serum (FBS; Gibco). The suspension was triturated with a 10-ml pipette and using a needle syringe 21G and centrifuged at 350×g for 10 min at room temperature. The pellet of dissociated cells was resuspended in a medium consisting of Neurobasal (Gibco) supplemented with 2% B27 supplement (Gibco), 0.5 mM L-Glutamine (Gibco), an antibiotic-antimicotic mixture. Viable cells were counted in a Neubauer cytometer using the trypan blue exclusion test (Sigma). Cells were seeded at a density of 10000 cells per well in 96-well plate (Costar) precoated with poly-L-lysine. Test compound at different concentrations were added to the cultures. Donepezil (positive control) was tested at 250 nM.
After 72 h (3 days) of plating, cultures were fixed with paraformaldehyde in PBS (4%, Sigma) for 30 min at 4° C. Then, cells were successively permeabilized with 0.1% Triton X100 for 30 min, saturated with PBS containing 3% of BSA and were incubated 1 h with anti-beta III tubulin antibody (Sigma) at 1/10 000 in PBS containing 0.5% of BSA. Cells were washed three times with PBS containing 0.5% of BSA, and they were incubated 1 h with goat anti-mouse antibody coupled with AF488 (Invitrogen A11001) diluted at 1/1000 in PBS containing 0.5% of BSA. Finally, nuclei were staining with DAPI 1 mg/ml at 1/1000 in PBS containing 0.5% of BSA. After rinsing with PBS, the plate was filmed and neurite networks were examined and analyzed using High-Content Screening (CellInsight, Thermo Scientific). The average number of neurites per neuron and the average total length of neurites per neuron were the main parameters analyzed. Analysis of data was performed using analysis of variance (ANOVA). The Fisher's Protected Least Significant Difference test was used for multiple comparisons. A p value<0.05 was considered significant. The software used is StatView 5.0 from SAS Institut.
In some embodiments, a compound of the present invention increases the pattern of neurite outgrowth. In some embodiments, a compound of the present invention increases neurite average length compared to a control. In some embodiments, a compound of the present invention increases neurite branch points compared to a control.

Rat cortical neurons [2] = experiment: Neurite Outgrowth Assay (Procedure A); assay type: cell-based; conditions: 1 hour treatment at DIV 4, analyzed DIV 7
Excerpt: Neurite outgrowth assay. Changes in the pattern of neurite outgrowth have been implicated in neurodegenerative disorders as well as traumatic injuries. The discovery of new compounds that can positively affect neuritogenesis are important for developing new therapeutics for neurological diseases. Measurement of neurite outgrowth of rat cortical neurons using an automated image-based assay is used to determine the neuroplastic effects of the compounds provided herein. In some embodiments, a compound provided herein increases the pattern of neurite outgrowth. In some embodiments, a compound provided herein increases neurite average length compared to a control. In some embodiments, a compound provided herein increases neurite branch points compared to a control. In some embodiments, a compound provided herein increases neurite average length and neurite branch points compared to a control.
In some embodiments, the plastogenic potential of compounds provided herein is assessed by measuring the changes in neurite development. In some embodiments, the plastogenic potential (as measured by Neurite Outgrowth Procedure A) of the compounds is shown in Table 10.
Neurite Outgrowth Assay (Procedure A). Rat cortical neurons (20,000 cells/well) were freshly isolated from embryonic day 18 rats and cultured in Neurobasal Medium (+B27). The cultured cells were plated in 96 well-plates (avoiding external wells). At DIV 4, the neurons were treated with compound or control (10 μM) for 1 hour followed by complete washout of the compound. At DIV 7, the neurons were analyzed. The experiments were performed in triplicate. Neurite outgrowth was measured analyzing the following parameters: Number of Cell Bodies, total neurite length (pixels), Root Count, Segments, Extremities Count and node points. Changes in the pattern of neurite outgrowth of the neurons were analyzed by immunocytochemistry against […]. Pictures were acquired by the CellInsight CX7 from Thermo Fisher and analyzed using its software. Results generated in the equipment were maximum neurite length, extremity count, root count, dendrite branch points, and total neurite length. The results were compared the percent of DMSO control, representing the percentage of outgrowth compare to vehicle control in neuronal outgrowth.

5HT2A [3] = biological target: T1, 5HT2A (Homo sapiens, UniProt P28223); experiment: Serotonin 5-HT2A in vitro radioligand binding competition assay ([3H]-DOI); design: purchased Epics Therapeutics S.A. (Belgium) FAST-0505B; conditions: [3H]-DOI competition, membrane extracts; read-out: 5-HT2A Radioligand Binding Activity
T1 sequence (P28223 whole entry): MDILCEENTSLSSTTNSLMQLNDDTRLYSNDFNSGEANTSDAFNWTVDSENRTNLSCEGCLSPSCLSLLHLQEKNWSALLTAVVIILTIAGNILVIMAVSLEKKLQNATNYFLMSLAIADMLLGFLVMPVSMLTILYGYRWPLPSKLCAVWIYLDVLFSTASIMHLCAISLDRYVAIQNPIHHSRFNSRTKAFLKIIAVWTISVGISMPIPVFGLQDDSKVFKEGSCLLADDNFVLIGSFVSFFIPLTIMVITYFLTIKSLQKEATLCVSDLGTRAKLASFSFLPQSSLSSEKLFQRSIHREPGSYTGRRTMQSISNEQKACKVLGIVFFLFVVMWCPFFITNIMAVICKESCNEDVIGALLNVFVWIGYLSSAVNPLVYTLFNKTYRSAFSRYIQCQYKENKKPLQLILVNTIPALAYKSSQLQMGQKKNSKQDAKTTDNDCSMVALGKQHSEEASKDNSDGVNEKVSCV
Procedure: Serotonin 5-HT2A In Vitro Radioligand Binding Competition Assay. The 5-HT2A radioligand binding competition assay was performed at Epics Therapeutics S.A. (Belgium, FAST-0505B) using conventional methods. Briefly, competition binding is performed in duplicate in the wells of a 96 well plate (Master Block, Greiner, 786201) containing binding buffer (optimized for each receptor), membrane extracts (amount of protein/well optimized for each receptor), radiotracer [^3H]-DOI (final concentration optimized for each receptor) and test compound. Nonspecific binding is determined by co-incubation with 200-fold excess of cold competitor. The samples are incubated in a final volume of 0.1 ml at a temperature and for a duration optimized for each receptor and then filtered over filter plates. Filters are washed six times with 0.5 ml of ice-cold washing buffer (optimized for each receptor) and 50 μl of Microscint 20 (Packard) are added in each well. The plates are incubated 15 min on an orbital shaker and then counted with a TopCount™ for 1 min/well.
(§1) The compounds provided herein were tested in the Serotonin 5-HT2A and 5-HT2C in vitro radioligand binding and cellular IPOne agonism assays. The binding and agonism functional potencies of several compound provided herein compounds (as indicated by their IC50s or EC50s) are shown in Table 11.

5HT2A [4] = biological target: T1, 5HT2A; experiment: cell-based
Procedure: Cell lines were expanded from freezer stocks according to standard procedures. Cells were seeded in a total volume of 20 μL into black-walled, clear-bottom, Poly-D-lysine coated 384-well microplates and incubated at 37° C. for the appropriate time prior to testing. Assays were performed in 1× Dye Loading Buffer consisting of 1× Dye, 1× Additive A and 2.5 mM Probenecid in HBSS/20 mM Hepes. Probenicid was prepared fresh. Cells were loaded with dye prior to testing. Media was aspirated from cells and replaced with 20 μL Dye Loading Buffer. Cells are incubated for 30-60 minutes at 37° C.
For agonist determination, cells were incubated with sample to induce response. After dye loading, cells were removed from the incubator and 10 μL HBSS/20 mM Hepes was added. […] Cells were incubated for 30 minutes at room temperature in the dark to equilibrate plate temperature. Intermediate dilution of sample stocks was performed to generate 4× sample in assay buffer. Compound agonist activity was measured on a FLIPR Tetra (MDS). Calcium mobilization is monitored for 2 minutes and 10 μL 4× sample in HBSS/20 mM Hepes was added to the cells 5 seconds into the assay.
Compound activity was analyzed using CBIS data analysis suite (ChemInnovation, CA). For agonist mode assays, percentage activity was calculated using the following formula:
% Activity=100%×(mean RFU of test sample−mean RFU of vehicle control)/(mean MAX RFU control ligand −mean RFU of vehicle control).

5HT2A [5] = biological target: T1, 5HT2A; experiment: Serotonin 5-HT2A in vitro cellular IPOne agonism assay; assay type: cell-based; design: host or cells: CHO-K1; conditions: CHO-K1 cells, IPOne HTRF; read-out: 5-HT2A IPOne Agonism Activity
Procedure: Serotonin 5-HT2A In Vitro Cellular IPOne Agonism Assay. The 5-HT2A IPOne HTRF assay was performed at Epics Therapeutics S.A. (Belgium, FAST-0505I) using conventional methods. Briefly, CHO-K1 cells expressing human recombinant 5-HT2A receptor grown to mid-log phase in culture media without antibiotics were detached with PBS-EDTA, centrifuged, and resuspended in medium without antibiotics buffer. 20,000 cells are distributed in a 96 well plate and incubated overnight at 37° C. with 5% CO2.
For agonist testing, the medium is removed and 20 μl of assay buffer plus 20 μl of test compound or reference agonist are added in each well. The plate is incubated for 60 min. at 37° C. with 5% CO2.
After addition of the lysis buffer containing IP1-d2 and anti-IP1 cryptate detection reagents, plates are incubated 1-hour at room temperature, and fluorescence ratios are measured according to the manufacturer specification, with the HTRF kit.
as §1

mice = experiment: Head-twitch response (HTR) in mice; assay type: in vivo; conditions: hallucinogenic potential
5HT2A [6] = assay type: cell-based; conditions: result in words
5HT2A [7] = conditions: result in words

Compound | Increase in Neurite Length (Rat cortical neurons [1]) | Increase in Neurite Number (Rat cortical neurons [1]) | Neurite Average Length @ 10 μM (Rat cortical neurons [2]) | Neurite Branch Points: @ 10 μM (Rat cortical neurons [2]) | pIC50 (5HT2A [3]) | pEC50 (5HT2A [4]) | pEC50 (5HT2A [5]) | head-twitch response (HTR) (mice) | activation of 5HT2A sensor assay in agonist mode (5HT2A [6]) | competition with 5-HT in 5HT2A sensor assay in antagonist mode (5HT2A [7])
COc1ccc2c(ccn2CCN(C)C)n1 [Example 3, 2-(5-methoxy-1H-pyrrolo[3,2-b]pyridin-1-yl)-N,N-dimethylethan-1-amine] | A | B | B (100%-200% vehicle) | A (>200% vehicle) | 6.00 to 7.00 | < 3.96 | < 5.00 | – | – | –
COc1cc2ccn(CCN(C)C)c2cn1 [Example 4, 2-(5-methoxy-1H-pyrrolo[2,3-c]pyridin-1-yl)-N,N-dimethylethan-1-amine] | A | A | B (100%-200% vehicle) | B (100%-200% vehicle) | 5.00 to 6.00 | < 3.96 | < 5.00 | – | – | –
COc1cnc2c(ccn2CCN(C)C)c1 [Example 5, 2-(5-methoxy-1H-pyrrolo[2,3-b]pyridin-1-yl)-N,N-dimethylethan-1-amine] | B | B | B (100%-200% vehicle) | C (<100% vehicle) | 6.00 to 7.00 | < 3.96 | < 5.00 | – | – | –
COc1ccc2[nH]cc(CCN(C)C)c2c1 [Example 5-MeO-DMT] | – | – | – | – | – | – | – | produces a robust, dose-dependent head-twitch response | activate the 5HT2A sensor assay in agonist mode | –
CN(C)CCn1ccc2cncnc21 [Example 6, N,N-dimethyl-2-(7H-pyrrolo[2,3-d]pyrimidin-7-yl)ethan-1-amine] | B | B | A (>200% vehicle) | A (>200% vehicle) | 5.00 to 6.00 | < 3.96 | < 5.00 | – | – | –
COc1ccc2c(CCN(C)C)c[nH]c2c1 [Example 6-MeO-DMT] | – | – | – | – | – | – | – | does not produce a HTR | do not activate the 5HT2A sensor assay in agonist mode | compete off 5-HT
CN(C)CCn1ccc2cnccc21 [Example 7, N,N-dimethyl-2-(1H-pyrrolo[3,2-c]pyridin-1-yl)ethan-1-amine] | A | B | B (100%-200% vehicle) | A (>200% vehicle) | < 5.00 | < 3.96 | < 5.00 | – | – | –
COc1ccc2c(c1)CCN2CCN(C)C [Example 8, 2-(5-methoxyindolin-1-yl)-N,N-dimethylethan-1-amine] | A | B | B (100%-200% vehicle) | A (>200% vehicle) | < 5.00 | < 3.96 | < 5.00 | – | – | –
